Experimental data: ChEMBL document CHEMBL1201862, “PubChem BioAssay data set” (2004)
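Briefly, cells in 96-well plates were exposed to five compound concentrations for 48 h, and endpoints were estimated by linear interpolation. GI50: concentration for 50% inhibition of growth.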 Active and inactive are the calls of the source. Cut-off read from the data, not from the text of the source: active = GI50 up to about 1.1 µM and inactive = higher.

Columns and labels:
Assay in all cases: inhibition of tumour cell growth, NCI panel, 48 h
HCT-15 = test system: HCT-15
SNB-75 = test system: SNB-75
LOX IMVI = test system: LOX IMVI
SK-OV-3 = test system: SK-OV-3
CCRF-CEM = test system: CCRF-CEM
UACC-257 = test system: UACC-257
OVCAR-8 = test system: OVCAR-8
HL-60 = test system: HL-60
MCF7 = test system: MCF7
IGROV-1 = test system: IGROV-1
786-0 = test system: 786-0
SR = test system: SR
A549 = test system: A549
UACC-62 = test system: UACC-62
NCI/ADR-RES = test system: NCI/ADR-RES
NCI-H460 = test system: NCI-H460
M14 = test system: M14
MDA-MB-231 = test system: MDA-MB-231
EKVX = test system: EKVX
CAKI-1 = test system: CAKI-1

| SMILES | GI50 (HCT-15) [µM] | GI50 (SNB-75) | GI50 (LOX IMVI) | GI50 (SK-OV-3) | GI50 (CCRF-CEM) | GI50 (UACC-257) | GI50 (OVCAR-8) | GI50 (HL-60) | GI50 (MCF7) | GI50 (IGROV-1) | GI50 (786-0) | GI50 (SR) | GI50 (A549) | GI50 (UACC-62) | GI50 (NCI/ADR-RES) | GI50 (NCI-H460) | GI50 (M14) | GI50 (MDA-MB-231) | GI50 (EKVX) | GI50 (CAKI-1) |
| --- | --- | --- | --- | --- | --- | --- | --- | --- | --- | --- | --- | --- | --- | --- | --- | --- | --- | --- | --- | --- |
| CC(=O)NNc1nc(C)c(C(/C=C/c2ccccc2O)=N/N=C(N)N)s1 | > 100 | > 100 µM (inactive) | > 100 µM (inactive) | > 100 µM (inactive) | > 100 µM (inactive) | > 100 µM (inactive) | > 100 µM (inactive) | > 100 µM (inactive) | > 100 µM (inactive) | > 100 µM (inactive) | > 100 µM (inactive) | > 100 µM (inactive) | > 100 µM (inactive) | > 100 µM (inactive) | > 100 µM (inactive) | > 100 µM (inactive) | > 100 µM (inactive) | > 100 µM (inactive) | 93.8 µM (inactive) | > 100 µM (inactive) |
| O=C1/C(=C/c2cccc(F)c2)CCCc2ccccc21 | 15.9 | 17.3 µM (inactive) | 16.5 µM (inactive) | 27.2 µM (inactive) | 15.5 µM (inactive) | 16.9 µM (inactive) | 15.8 µM (inactive) | 21.5 µM (inactive) | 14.6 µM (inactive) | 12.2 µM (inactive) | 17.2 µM (inactive) | 14.7 µM (inactive) | 17.7 µM (inactive) | 15.3 µM (inactive) | 16.5 µM (inactive) | 17.4 µM (inactive) | 13.9 µM (inactive) | 18.3 µM (inactive) | 15 µM (inactive) | 17.7 µM (inactive) |
| CN(C)C(=S)SN(C)C(=O)Nc1ccccc1 | 22.6 | 28.6 µM (inactive) | 8.26 µM (inactive) | > 87.7 µM (inactive) | 0.993 µM (active) | 46.1 µM (inactive) | 35.3 µM (inactive) | 2.86 µM (inactive) | 2.67 µM (inactive) | 26 µM (inactive) | 6.62 µM (inactive) | 5.43 µM (inactive) | 23.4 µM (inactive) | 3.62 µM (inactive) | 3.2 µM (inactive) | 1.82 µM (inactive) | 7.46 µM (inactive) | 38.9 µM (inactive) | > 86.9 µM (inactive) | 26.1 µM (inactive) |
| CC1N(O)C(c2ccccc2)C(c2ccccc2)=[N+]1[O-] (stereo not given) | > 100 | 84.3 µM (inactive) | > 100 µM (inactive) | > 100 µM (inactive) | > 100 µM (inactive) | > 100 µM (inactive) | > 100 µM (inactive) | > 100 µM (inactive) | > 100 µM (inactive) | > 100 µM (inactive) | > 100 µM (inactive) | > 100 µM (inactive) | > 100 µM (inactive) | > 100 µM (inactive) | > 100 µM (inactive) | > 100 µM (inactive) | > 100 µM (inactive) | > 100 µM (inactive) | > 100 µM (inactive) | > 100 µM (inactive) |
| CN1CCC23c4c5ccc(Oc6nnnn6-c6ccccc6)c4OC2c2[nH]c4ccccc4c2CC3(O)C1C5 (stereo not given) | 2.43 | 2.59 µM (inactive) | 1.89 µM (inactive) | 9.66 µM (inactive) | 2.08 µM (inactive) | 1.83 µM (inactive) | 2.86 µM (inactive) | 1.81 µM (inactive) | 2.27 µM (inactive) | 8.83 µM (inactive) | 1.77 µM (inactive) | 1.64 µM (inactive) | 3.96 µM (inactive) | 1.8 µM (inactive) | 5.37 µM (inactive) | 1.85 µM (inactive) | 1.85 µM (inactive) | 1.81 µM (inactive) | 9.64 µM (inactive) | 2.16 µM (inactive) |
| COc1cc2cc(C(=O)N3CC(COS(C)(=O)=O)c4c3cc(N)c3ccccc43)[nH]c2c(OC)c1OC (stereo not given) | < 0.0206 | < 0.01 µM (active) | 0.0172 µM (active) | 0.0444 µM (active) | 0.0128 µM (active) | 0.0209 µM (active) | 0.0136 µM (active) | < 0.01 µM (active) | < 0.0122 µM (active) | 0.0228 µM (active) | < 0.01 µM (active) | < 0.01 µM (active) | 0.0146 µM (active) | 0.0146 µM (active) | 0.0123 µM (active) | < 0.01 µM (active) | 0.0169 µM (active) | < 0.01 µM (active) | 0.0216 µM (active) | 0.0211 µM (active) |
| COC(=O)/C=C\C(C#N)(C#N)/N=C/c1sccc1C | 1.96 | 14.8 µM (inactive) | 1.3 µM (inactive) | 18.4 µM (inactive) | 1 µM (active) | 11.1 µM (inactive) | 2.47 µM (inactive) | 1.88 µM (inactive) | 1.56 µM (inactive) | 15 µM (inactive) | 1.94 µM (inactive) | 2.36 µM (inactive) | 15 µM (inactive) | 6.62 µM (inactive) | 11.8 µM (inactive) | 16.4 µM (inactive) | 2.28 µM (inactive) | 0.589 µM (active) | 3.59 µM (inactive) | 1.93 µM (inactive) |
| COC(=O)/C(=N/NC(N)=O)C(C(=O)C(=O)Nc1ccc(C)cc1)c1nc2ccc(C(=O)c3ccccc3)cc2nc1O (stereo not given) | > 100 | 39.7 µM (inactive) | > 100 µM (inactive) | > 100 µM (inactive) | 49 µM (inactive) | > 100 µM (inactive) | 75.2 µM (inactive) | 67.9 µM (inactive) | 91.4 µM (inactive) | 23.7 µM (inactive) | > 100 µM (inactive) | 1.53 µM (inactive) | > 100 µM (inactive) | 51.4 µM (inactive) | 39.3 µM (inactive) | > 100 µM (inactive) | > 100 µM (inactive) | > 100 µM (inactive) | 33.4 µM (inactive) | 88.9 µM (inactive) |
| Cc1nc2c(Br)cc(Br)cc2c(=O)n1-c1ccccc1N | 35.8 | 22.9 µM (inactive) | 27.5 µM (inactive) | 33 µM (inactive) | 30.1 µM (inactive) | 31 µM (inactive) | 62.5 µM (inactive) | 19.9 µM (inactive) | 38.9 µM (inactive) | 38.3 µM (inactive) | 43.8 µM (inactive) | 37 µM (inactive) | 33.5 µM (inactive) | 30.1 µM (inactive) | 45.9 µM (inactive) | 31.8 µM (inactive) | 35.4 µM (inactive) | 47.4 µM (inactive) | 41 µM (inactive) | 28.4 µM (inactive) |
| Cc1cccc(/N=C/C=C(\Cl)c2ccc3ccccc3c2)c1 | 11.7 | > 39.3 µM (inactive) | 2.79 µM (inactive) | 23.4 µM (inactive) | 4.15 µM (inactive) | 15.7 µM (inactive) | 18.4 µM (inactive) | 11.4 µM (inactive) | 16.4 µM (inactive) | 20.6 µM (inactive) | 13.9 µM (inactive) | 3.88 µM (inactive) | 44.6 µM (inactive) | 15.1 µM (inactive) | 17.7 µM (inactive) | 28.4 µM (inactive) | 17.1 µM (inactive) | 15.9 µM (inactive) | 39.5 µM (inactive) | 17.2 µM (inactive) |
| COc1cc(C)cc2c1C(=O)C(Br)=CC2=O | 17.4 | 16.9 µM (inactive) | 8.59 µM (inactive) | 19.6 µM (inactive) | 0.867 µM (active) | 13.7 µM (inactive) | 6.34 µM (inactive) | 1.53 µM (inactive) | 4.48 µM (inactive) | 17.7 µM (inactive) | 3.92 µM (inactive) | 4.57 µM (inactive) | 21.2 µM (inactive) | 9.71 µM (inactive) | 27.3 µM (inactive) | 19.4 µM (inactive) | 3.3 µM (inactive) | 14.7 µM (inactive) | 17.7 µM (inactive) | 1.63 µM (inactive) |
| Clc1ccc(/C(=C\c2ccccc2)Cn2ccnc2)cc1 | 17.8 | 26.2 µM (inactive) | 8.83 µM (inactive) | 16.5 µM (inactive) | 24.5 µM (inactive) | 19.3 µM (inactive) | 16.1 µM (inactive) | 14.1 µM (inactive) | 16.1 µM (inactive) | 19.6 µM (inactive) | 17.4 µM (inactive) | 3.46 µM (inactive) | 18 µM (inactive) | 16.7 µM (inactive) | 14.6 µM (inactive) | 20.1 µM (inactive) | 19.6 µM (inactive) | 11.1 µM (inactive) | 21.9 µM (inactive) | 7.21 µM (inactive) |
| O=C1CCC2(CCO1)OCCO2 | > 100 | > 100 µM (inactive) | > 100 µM (inactive) | > 100 µM (inactive) | > 100 µM (inactive) | > 100 µM (inactive) | > 100 µM (inactive) | > 100 µM (inactive) | > 100 µM (inactive) | > 100 µM (inactive) | > 100 µM (inactive) | > 100 µM (inactive) | > 100 µM (inactive) | > 100 µM (inactive) | > 100 µM (inactive) | > 100 µM (inactive) | > 100 µM (inactive) | > 100 µM (inactive) | > 100 µM (inactive) | > 100 µM (inactive) |
| COc1cc(C2C(Cl)C(=O)N2c2ccc(Br)cc2)cc(I)c1O (stereo not given) | 23.8 | 37.8 µM (inactive) | 6.04 µM (inactive) | 92.9 µM (inactive) | 26.4 µM (inactive) | 57 µM (inactive) | > 100 µM (inactive) | 34 µM (inactive) | 87.9 µM (inactive) | 1.54 µM (inactive) | > 100 µM (inactive) | 29.2 µM (inactive) | 42.4 µM (inactive) | 25.5 µM (inactive) | 33.5 µM (inactive) | 58.3 µM (inactive) | 33 µM (inactive) | 18.9 µM (inactive) | 20.7 µM (inactive) | 47.9 µM (inactive) |
